From ChEMBL document CHEMBL4385672, “Design, synthesis and biological evaluation of 2-(3,4-dimethoxyphenyl)-6 (1,2,3,6-tetrahydropyridin-4-yl)imidazo[1,2-a]pyridine analogues as antiproliferative agents” (Bioorg Med Chem Lett, 2019) come the findings set out here.

Activity calls are given as the source filed them. The rule behind the calls is not given here.

For orientation: IC50 means the point on the concentration scale where inhibition reaches its midpoint.

Data set [1] concerns B16-F10. The data set can be described thus: Antiproliferative activity against mouse B16F10 cells at 10 to 100 uM incubated for 48 hrs by MTT assay. It counts as functional, cell-based. (In general: Formazan colour is commonly taken as a measure of viable cells.)
Data set [2] has as its system HeLa. Briefly: Antiproliferative activity against human HeLa cells at 10 to 100 uM incubated for 48 hrs by MTT assay. In kind it is functional, cell-based.
In data set [3] the test system is A549. The data set can be described thus: Antiproliferative activity against human A549 cells at 10 to 100 uM incubated for 48 hrs by MTT assay. It counts as functional, cell-based.
Data set [4] has as its system B16-F10. The data set can be described thus: Antiproliferative activity against mouse B16F10 cells incubated for 48 hrs by MTT assay. It counts as functional, cell-based. The note with it: B16-F10, 48 h.
Data set [5] concerns A549. Briefly: Antiproliferative activity against human A549 cells incubated for 48 hrs by MTT assay. It counts as functional, cell-based. The note with it: A549, 48 h.
Data set [6] concerns HEK293. Briefly: Cytotoxicity in HEK293 cells assessed as reduction in cel viability incubated for 48 hrs by MTT assay. In kind it is cell-based. The note with it: Homo sapiens, HEK293, 48 h.
The subject of data set [7] is HeLa. The data set can be described thus: Antiproliferative activity against human HeLa cells incubated for 48 hrs by MTT assay. In kind it is functional, cell-based.
Data set [8] can be described thus: Selectivity index, ratio of IC50 for cytotoxicity in HEK293 cells assessed as reduction in cell viability incubated for 48 hrs by MTT assay to IC50 for antiproliferative activity against human A549 cells incubated for 48 hrs by MTT assay. In kind it is toxicity, cell-based. The note with it: read-out: Ratio IC50.
Data set [9] is described as follows: Selectivity index, ratio of IC50 for cytotoxicity in HEK293 cells assessed as reduction in cell viability incubated for 48 hrs by MTT assay to IC50 for antiproliferative activity against mouse B16F10 cells incubated for 48 hrs by MTT assay. The note with it: read-out: Ratio IC50. It counts as toxicity, cell-based.
The nature of data set [10]: Selectivity index, ratio of IC50 for cytotoxicity in HEK293 cells assessed as reduction in cell viability incubated for 48 hrs by MTT assay to IC50 for antiproliferative activity against human HeLa cells incubated for 48 hrs by MTT assay. It counts as toxicity, cell-based. The note with it: read-out: Ratio IC50.

Consider `COc1ccc(-c2cn3cc(C4=CCNCC4)ccc3n2)cc1OC`, for which the outcome in data set [1], in data set [2] and in data set [3] was Active.
As for `COc1ccc(-c2cn3cc(C4=CCN(S(=O)(=O)c5ccc([N+](=O)[O-])cc5)CC4)ccc3n2)cc1OC`, the outcome in data set [1], in data set [2] and in [3] was Active.
Take `COc1ccc(-c2cn3cc(C4=CCN(C(=O)c5ccccc5C(F)(F)F)CC4)ccc3n2)cc1OC`: the IC50 in data set [4] amounted to 8.11 µM; in data set [5] it was 2.55 µM; in data set [6], 82.9 µM; in [7], 7.95 µM. Moreover, the outcome in [1], in data set [2] and in data set [3] was Active. Also, the selectivity ratio at 48 h in data set [8], in data set [9] and in [10] was 10 to 14 each time.
Turning to `COc1ccc(-c2cn3cc(C4=CCN(C(=O)c5cocn5)CC4)ccc3n2)cc1OC`, the result in data set [1], in data set [2] and in data set [3] was Active.
Take `Nc1ccccc1NC(=O)c1cnccn1`: the half-maximal inhibitory concentration (IC50) in [4] is 34.6 µM; in [5], 29.1 µM; in [7], 28.3 µM.
For the compound `COc1ccc(-c2cn3cc(C4=CCN(S(=O)(=O)CC(C)C)CC4)ccc3n2)cc1OC`, the result in data set [1], in [2] and in data set [3] was Active.
`COc1ccc(-c2cn3cc(C4=CCN(C(=O)c5cccc(C(F)(F)F)c5)CC4)ccc3n2)cc1OC`: the half-inhibitory concentration (IC50) was 7.89 µM in data set [4], 3.69 µM in data set [5], 68.4 µM in data set [6] and 4.86 µM in data set [7]. In addition, the outcome in [1], in data set [2] and in data set [3] was Active. The selectivity ratio at 48 h in data set [8], in [9] and in [10] was 10 to 14 in each case.
As to `COc1ccc(-c2cn3cc(C4=CCN(S(=O)(=O)c5ccc(Br)cc5)CC4)ccc3n2)cc1OC`, the result in data set [1], in data set [2] and in data set [3] was Active.
In the case of `COc1ccc(-c2cn3cc(C4=CCN(C(=O)c5ccccn5)CC4)ccc3n2)cc1OC`, the outcome in data set [1], in data set [2] and in data set [3] was Active.
Consider `COc1ccc(-c2cn3cc(C4=CCN(C(=O)c5ccc(F)cc5F)CC4)ccc3n2)cc1OC`, for which the result in data set [1], in data set [2] and in [3] was Active.
Take `COc1ccc(-c2cn3cc(C4=CCN(C(=O)c5ccc(F)cc5)CC4)ccc3n2)cc1OC`: the outcome in data set [1], in data set [2] and in data set [3] was Active.
Turning to `COc1ccc(-c2cn3cc(C4=CCN(S(=O)(=O)CCc5ccccc5)CC4)ccc3n2)cc1OC`, the IC50 was found to be 8.08 µM in data set [4], 7.69 µM in data set [5], 70.3 µM in [6] and 8.98 µM in data set [7]. The outcome in data set [1], in data set [2] and in data set [3] was Active. In addition, the selectivity ratio at 48 h in [8], in data set [9] and in data set [10] was 10 to 14 each time.
On to `CCS(=O)(=O)N1CC=C(c2ccc3nc(-c4ccc(OC)c(OC)c4)cn3c2)CC1`, for which the result in [1], in data set [2] and in data set [3] was Active.
Take `COc1ccc(-c2cn3cc(C4=CCN(C(=O)c5ccccc5F)CC4)ccc3n2)cc1OC`: the outcome in data set [1], in data set [2] and in data set [3] was Active.
As to `COc1ccc(-c2cn3cc(C4=CCN(C(=O)C5CC5)CC4)ccc3n2)cc1OC`, the IC50 in data set [4] was found to be 19.4 µM; in [5], 9.14 µM; in data set [6], 77.5 µM; in [7], 15.8 µM. For the same compound, the result in [1], in data set [2] and in data set [3] was Active. In addition, the selectivity ratio at 48 h in data set [8], in data set [9] and in data set [10] was 10 to 14 in each case.
With `COc1ccc(-c2cn3cc(C4=CCN(C(=O)COCc5ccccc5)CC4)ccc3n2)cc1OC`, the result in data set [1], in data set [2] and in [3] was Active.
In the case of `COc1ccc(S(=O)(=O)N2CC=C(c3ccc4nc(-c5ccc(OC)c(OC)c5)cn4c3)CC2)cc1`, the result in data set [1], in data set [2] and in [3] was Active.
As for `COc1ccc(-c2cn3cc(C4=CCN(C(=O)c5cccs5)CC4)ccc3n2)cc1OC`, the IC50 in data set [4] was 19.5 µM; in data set [5], 5.2 µM; in data set [6] it was 98.1 µM; in [7], 16 µM. The outcome in data set [1], in data set [2] and in data set [3] was Active. Moreover, the selectivity ratio at 48 h in [8], in data set [9] and in data set [10] was 10 to 14 throughout.
Regarding `COc1ccc(-c2cn3cc(C4=CCN(S(=O)(=O)c5ccc(C(F)(F)F)cc5)CC4)ccc3n2)cc1OC`, the outcome in data set [1], in data set [2] and in [3] was Active.
`COc1ccc(-c2cn3cc(C4=CCN(S(=O)(=O)c5ccccc5[N+](=O)[O-])CC4)ccc3n2)cc1OC`: the outcome in data set [1], in [2] and in [3] was Active.
Consider `COc1ccc(-c2cn3cc(C4=CCN(S(=O)(=O)c5ccc(C)cc5)CC4)ccc3n2)cc1OC`, for which the outcome in data set [1], in [2] and in [3] was Active.
Regarding `C=CC(=O)N1CC=C(c2ccc3nc(-c4ccc(OC)c(OC)c4)cn3c2)CC1`, the outcome in data set [1], in data set [2] and in data set [3] was Active.
`COc1ccc(-c2cn3cc(C4=CCN(S(=O)(=O)c5ccc(Cl)cc5)CC4)ccc3n2)cc1OC`: the result in data set [1], in data set [2] and in [3] was Active.
For the compound `COc1ccc(-c2cn3cc(C4=CCN(S(=O)(=O)c5ccc(C(C)(C)C)cc5)CC4)ccc3n2)cc1OC`, the result in data set [1], in data set [2] and in data set [3] was Active.
Consider `COc1ccc(-c2cn3cc(C4=CCN(C(=O)c5cccc(F)c5)CC4)ccc3n2)cc1OC`, for which the outcome in [1], in data set [2] and in [3] was Active.
On to `COc1ccc(-c2cn3cc(C4=CCN(C(C)=O)CC4)ccc3n2)cc1OC`, for which the outcome in data set [1], in data set [2] and in data set [3] was Active.
In the case of `CCCS(=O)(=O)N1CC=C(c2ccc3nc(-c4ccc(OC)c(OC)c4)cn3c2)CC1`, the outcome in data set [1], in data set [2] and in data set [3] was Active.
Regarding `COc1ccc(-c2cn3cc(C4=CCN(C(=O)N(C)C)CC4)ccc3n2)cc1OC`, the outcome in data set [1], in data set [2] and in data set [3] was Active.
For the compound `COc1ccc(-c2cn3cc(C4=CCN(S(=O)(=O)c5ccc(Cl)s5)CC4)ccc3n2)cc1OC`, the result in data set [1], in [2] and in data set [3] was Active.
Regarding `COc1ccc(-c2cn3cc(C4=CCN(S(=O)(=O)C(F)(F)F)CC4)ccc3n2)cc1OC`, the result in [1], in [2] and in data set [3] was Active.
Regarding `COc1ccc(-c2cn3cc(C4=CCN(C(=O)c5ccco5)CC4)ccc3n2)cc1OC`, the result in data set [1], in [2] and in data set [3] was Active.
In the case of `COc1ccc(-c2cn3cc(C4=CCN(S(=O)(=O)C5CC5)CC4)ccc3n2)cc1OC`, the outcome in data set [1], in data set [2] and in [3] was Active.
Turning to `COc1ccc(-c2cn3cc(C4=CCN(S(=O)(=O)c5ccc(C(C)=O)cc5)CC4)ccc3n2)cc1OC`, the outcome in [1], in [2] and in data set [3] was Active.
`COc1ccc(-c2cn3cc(C4=CCN(C(=O)C(F)(F)F)CC4)ccc3n2)cc1OC`: the result in data set [1], in [2] and in [3] was Active.
Turning to `COc1ccc(-c2cn3cc(C4=CCN(S(=O)(=O)c5ccc(Br)s5)CC4)ccc3n2)cc1OC`, the outcome in [1], in [2] and in data set [3] was Active.
As to `COc1ccc(-c2cn3cc(C4=CCN(S(=O)(=O)c5ccc(F)cc5)CC4)ccc3n2)cc1OC`, the result in data set [1], in data set [2] and in data set [3] was Active.
